Experimental data: US9487470B2, “4-((substituted phenyl) difluoromethyl) phenoxy carboxylic acid derivative, and preparation method and uses thereof” (Zhejiang Hisun Pharmaceutical Co., Ltd., priority 2012, dated 2016)

What was measured:
[1] = test system: hyperlipoidemia model of Goldenhamsters (blood plasma TC, TG, HDL-C, LDL-C); assay: Pharmacological test group 1: effects on blood lipid levels of Goldenhamsters in a hyperlipoidemia model; assay type: in vivo; settings: for regulating effects on the levels of blood lipid (conclusion from table 2) / therapeutic effect compared with fenofibrate (conclusion from table 2) / effect on HDL-C, in comparison with the results before administration (in words) / effect on TG, in comparison with the results before administration (in words) / effect on TC, in comparison with the results before administration (in words): 40 mg/kg; for HDL-C, after administration / LDL-C, after administration / TC, after administration / TG, after administration: 40 mg/kg intragastric, 1 week, high-lipid feed continued, blood plasma, x±s, asterisks = P vs before administration; for therapeutic effect compared with fenofibrate (conclusion from table 2): fenofibrate 40 mg/kg; for effect on HDL-C, in comparison with the results before administration (in words) / effect on TG, in comparison with the results before administration (in words) / effect on TC, in comparison with the results before administration (in words): t test after vs before administration
Text: Animals: 134 male Goldenhamsters, aged 8 weeks, body weight 80-100 g, provided by Vital River Laboratories, Beijing. […] Kits: The kits for total cholesterol (TC), triglyceride (TG), and high density lipoprotein cholesterol (HDL-C) were provided by SYSMEX, and the kits for low density lipoprotein cholesterol (LDL-C) were provided by Shanghai Kehua Bio-engineering Co., Ltd. Apparatus: SYSMEX Automatic Biochemistry Analyzer, Bechman centrifuge, Setoris balance. The animals were acclimatized and fed for 1 week, ad lib, light cycle was 10 h/14 h, and then feeds with high lipid content were fed to the animals (formulation: 0.3% cholesterol, 20% palm oil, and 79.7% basic feeds). The animals were fed for 10 days, and were fasted at 4:00 pm on the 10th day (fasted for 16 h). On the 11th day, the animals were anaesthetized with ethyl ether, weighted, and then 0.5 ml blood was collected from vena orbitalis posterior. The blood was anticoagulated with heparin, and was centrifugated at 5000 rpm for 10 min. The blood plasma was taken, and the levels of TC, TG, HDL-C, and LDL-C in blood plasma were determined using automatic biochemistry analyzer. The animals were acclimatized and fed for 1 week, ad lib, light cycle was 10 h/14 h, and then feeds with high lipid content were fed to the animals (formulation: 0.3% cholesterol, 20% palm oil, and 79.7% basic feeds). The animals were fed for 2 weeks, and were fasted at 4:00 pm on the […] (fasted for 16 h). On the 22nd day, the animals were anaesthetized with ethyl ether, weighted, and then 0.5 ml blood was collected from vena orbitalis posterior. The blood was anticoagulated with heparin, and was centrifugated at 5000 rpm for 10 min. The blood plasma was taken, and the levels of TC, TG, HDL-C, and LDL-C in blood plasma were determined using automatic biochemistry analyzer. […] During the administration, feeds with high lipid content were continuously fed to the animals. The animals were fed for 1 week, and were fasted at 4:00 pm on the 7th day. On the 8th day, the animals were anaesthetized with ethyl ether, weighted, and then 0.5 ml blood was collected from vena orbitalis posterior. The blood was anticoagulated with heparin, and was centrifugated at 5000 rpm for 10 min. The blood plasma was taken, and the levels of TC, TG, HDL-C, and LDL-C in blood plasma were determined using automatic biochemistry analyzer. The results were represented by x±s, and t test was employed for comparing the results obtained before and after administration.

[2] = Solubility in water (remark on the test drugs); assay type: physicochemical; settings: formulated with 20% solutol

SMILES	regulating effects on the levels of blood lipid (conclusion from table 2) [1]	HDL-C, after administration [1]	LDL-C, after administration [1]	TC, after administration [1]	TG, after administration [1]	therapeutic effect compared with fenofibrate (conclusion from table 2) [1]	effect on HDL-C, in comparison with the results before administration (in words) [1]	effect on TG, in comparison with the results before administration (in words) [1]	effect on TC, in comparison with the results before administration (in words) [1]	solubility in water [2]
CCOC(=O)CCCOc1ccc(C(F)(F)c2ccc(Cl)cc2)cc1 [HS003-026, Ethyl 4-(4-((4-chlorophenyl)difluoromethyl)phenoxy)butyrate]	tend to the effect of significantly decreasing TG and increasing HDL-C	4.13 ± 0.32	1.69 ± 0.47	11.18 ± 1.6	0.82 ± 0.24	outstanding therapeutic effects on decreasing TG, and are significantly superior to fenofibrate	significantly increases	significantly decreases		
CC(C)OC(=O)C(C)(C)Oc1ccc(C(F)(F)c2ccc(C(F)(F)F)cc2)cc1 [HS003-007, Isopropyl 2-(4-((4-trifluoromethylphenyl)difluoromethyl)phenoxy)-2-methylpropionate]	tend to the effects of significantly decreasing TG, TC, and LDL-C	2.99 ± 0.13	1.26 ± 0.22	7.42 ± 0.71	2.12 ± 0.43				significantly decreases	
COC(=O)c1ccc(C(F)(F)c2ccc(OC(C)(C)C(=O)OC(C)C)cc2)cc1 [HS003-017, Isopropyl 2-(4-((4-methoxyacylphenyl)difluoromethyl)phenoxy)-2-methylpropionate]	tend to the effect of significantly decreasing TG and increasing HDL-C	4.09 ± 0.18	1.41 ± 0.34	11.61 ± 1.42	0.81 ± 0.15	outstanding therapeutic effects on decreasing TG, and are significantly superior to fenofibrate		significantly decreases		
Cc1cccc(C(F)(F)c2ccc(OC(C)(C)C(=O)OC(C)C)cc2)c1 [HS003-012, Isopropyl 2-(4-((3-methylphenyl)difluoromethyl)phenoxy)-2-methylpropionate]										insoluble
Cc1ccc(C(F)(F)c2ccc(OC(C)(C)C(=O)OC(C)C)cc2)cc1 [HS003-009, Isopropyl 2-(4-((4-methylphenyl)difluoromethyl)phenoxy)-2-methylpropionate]										insoluble
O=C(COc1ccc(C(F)(F)c2ccc(Cl)cc2)cc1)OCc1ccccc1 [HS003-021, Benzyl 2-(4-((4-chlorophenyl)difluoromethyl)phenoxy)-acetate]	tend to the effect of significantly decreasing TG and increasing HDL-C	4.46 ± 0.23	2.08 ± 0.89	13.37 ± 3.3	1.1 ± 0.53		significantly increases	significantly decreases		
CC(C)OC(=O)C(C)(C)Oc1ccc(C(F)(F)c2ccccc2C(F)(F)F)cc1 [HS003-016, Isopropyl 2-(4-((2-trifluoromethylphenyl)difluoromethyl)phenoxy)-2-methylpropionate]	tend to the effects of significantly decreasing TG, TC, and LDL-C	3.40 ± 0.32	1.0 ± 0.23	8.44 ± 1.12	1.23 ± 0.42				significantly decreases	
CC(C)OC(=O)C(C)(C)Oc1ccc(C(F)(F)c2cccc(C(F)(F)F)c2)cc1 [HS003-013, Isopropyl 2-(4-((3-trifluoromethylphenyl)difluoromethyl)phenoxy)-2-methylpropionate]	tend to the effects of significantly decreasing TG, TC, and LDL-C	3.12 ± 0.25	1.46 ± 0.46	8.93 ± 0.53	1.84 ± 0.45				significantly decreases	
CC(C)OC(=O)C(C)(C)Oc1ccc(C(F)(F)c2ccc(F)cc2)cc1 [HS003-006, Isopropyl 2-(4-((4-fluorophenyl)difluoromethyl)phenoxy)-2-methylpropionate]	tend to the effects of significantly decreasing TG, TC, and LDL-C	3.64 ± 0.31	1.02 ± 0.27	8.96 ± 0.77	1.06 ± 0.29		increases	significantly decreases	significantly decreases	
